Measured values reported in ChEMBL document CHEMBL3856229, “Hybrid Antibiotic Overcomes Resistance in P. aeruginosa by Enhancing Outer Membrane Penetration and Reducing Efflux” (J Med Chem, 2016).
Values after ≈ are worked out from the molar mass of the structure shown.

How the values were obtained:
Format in all cases: functional
Pseudomonas aeruginosa [1] = experiment: Antibacterial activity against multidrug-resistant/tobramycin-susceptible Pseudomonas aeruginosa isolate 86052
Staphylococcus aureus [2] = experiment: Antibacterial activity against Staphylococcus aureus ATCC 29213 after 24 hrs by microtitre broth dilution method; details: ATCC 29213, 24 h
Staphylococcus aureus [3] = experiment: Antibacterial activity against methicillin-resistant Staphylococcus aureus ATCC 33592 after 24 hrs by microtitre broth dilution method; details: ATCC 33592, 24 h
[4] = system: Staphylococcus epidermidis; experiment: Antibacterial activity against methicillin-susceptible Staphylococcus epidermidis isolate CANWARD-2008 81388 after 24 hrs by microtitre broth dilution method; details: isolate CANWARD-2008 81388, 24 h
[5] = system: Staphylococcus epidermidis; experiment: Antibacterial activity against methicillin-resistant Staphylococcus epidermidis isolate CAN-ICU 61589 after 24 hrs by microtitre broth dilution method; details: isolate CAN-ICU 61589, 24 h
Enterococcus faecalis = experiment: Antibacterial activity against Enterococcus faecalis ATCC 29212 after 24 hrs by microtitre broth dilution method; details: ATCC 29212, 24 h
Enterococcus faecium = experiment: Antibacterial activity against Enterococcus faecium ATCC 27270 after 24 hrs by microtitre broth dilution method; details: ATCC 27270, 24 h
Streptococcus pneumoniae = experiment: Antibacterial activity against Streptococcus pneumoniae ATCC 49619 after 24 hrs by microtitre broth dilution method; details: ATCC 49619, 24 h
Escherichia coli [6] = experiment: Antibacterial activity against gentamicin-resistant Escherichia coli isolate CAN-ICU 61714 after 24 hrs by microtitre broth dilution method; details: isolate CAN-ICU 61714, 24 h
Escherichia coli [7] = experiment: Antibacterial activity against amikacin-resistant Escherichia coli isolate CAN-ICU 63074 after 24 hrs by microtitre broth dilution method; details: isolate CAN-ICU 63074, 24 h
Escherichia coli [8] = experiment: Antibacterial activity against gentamicin/tobramycin/ciprofloxacin-resistant Escherichia coli isolate CANWARD-2011 97615 harboring AAC3-2A after 24 hrs by microtitre broth dilution method; details: isolate CANWARD-2011 97615, 24 h
Pseudomonas aeruginosa [9] = experiment: Antibacterial activity against Pseudomonas aeruginosa ATCC 27853 after 24 hrs by microtitre broth dilution method; details: ATCC 27853, 24 h
Pseudomonas aeruginosa [10] = experiment: Antibacterial activity against gentamicin/tobramycin-resistant Pseudomonas aeruginosa isolate CANWARD-2011 96846 after 24 hrs by microtitre broth dilution method; details: isolate CANWARD-2011 96846, 24 h
[11] = system: Stenotrophomonas maltophilia; experiment: Antibacterial activity against Stenotrophomonas maltophilia isolate CAN-ICU 62584 after 24 hrs by microtitre broth dilution method; details: isolate CAN-ICU 62584, 24 h
Acinetobacter baumannii = experiment: Antibacterial activity against Acinetobacter baumannii isolate CAN-ICU 63169 after 24 hrs by microtitre broth dilution method; details: isolate CAN-ICU 63169, 24 h
Klebsiella pneumoniae = experiment: Antibacterial activity against Klebsiella pneumoniae ATCC 13883 after 24 hrs by microtitre broth dilution method; details: ATCC 13883, 24 h
Pseudomonas aeruginosa [12] = experiment: Antibacterial activity against multidrug/extremely drug-resistant/colistin-susceptible Pseudomonas aeruginosa isolate 100036
Pseudomonas aeruginosa [13] = experiment: Antibacterial activity against multidrug/extremely drug-resistant/colistin-susceptible Pseudomonas aeruginosa isolate 101885
Pseudomonas aeruginosa [14] = experiment: Antibacterial activity against multidrug/extremely drug-resistant/colistin-susceptible Pseudomonas aeruginosa isolate 259-96918
Pseudomonas aeruginosa [15] = experiment: Antibacterial activity against multidrug/extremely drug-resistant/colistin-susceptible Pseudomonas aeruginosa isolate 260-97103
Pseudomonas aeruginosa [16] = experiment: Antibacterial activity against multidrug/extremely drug-resistant/colistin-susceptible Pseudomonas aeruginosa isolate 262-101856
Pseudomonas aeruginosa [17] = experiment: Antibacterial activity against multidrug/extremely drug-resistant/colistin-susceptible Pseudomonas aeruginosa isolate 264-104354
Pseudomonas aeruginosa [18] = experiment: Antibacterial activity against pandrug-resistant Pseudomonas aeruginosa isolate 91433
Pseudomonas aeruginosa [19] = experiment: Antibacterial activity against Pseudomonas aeruginosa PAO1
Pseudomonas aeruginosa [20] = experiment: Antibacterial activity against multidrug-resistant/tobramycin-susceptible Pseudomonas aeruginosa isolate 86053
Pseudomonas aeruginosa [21] = experiment: Antibacterial activity against multidrug-resistant/tobramycin-susceptible Pseudomonas aeruginosa isolate 86067
Pseudomonas aeruginosa [22] = experiment: Antibacterial activity against multidrug-resistant/tobramycin-susceptible Pseudomonas aeruginosa isolate 86079
Pseudomonas aeruginosa [23] = experiment: Antibacterial activity against multidrug-resistant/tobramycin-susceptible Pseudomonas aeruginosa isolate 83182
Escherichia coli [24] = experiment: Antibacterial activity against Escherichia coli ATCC 25922 after 24 hrs by microtitre broth dilution method; details: ATCC 25922, 24 h
Pseudomonas aeruginosa [25] = experiment: Antibacterial activity against pandrug-resistant Pseudomonas aeruginosa isolate 101243
Pseudomonas aeruginosa [26] = experiment: Antibacterial activity against multidrug-resistant/tobramycin-susceptible Pseudomonas aeruginosa isolate 86141
Pseudomonas aeruginosa [27] = experiment: Antibacterial activity against multidrug-resistant/tobramycin-susceptible Pseudomonas aeruginosa isolate 92014
Pseudomonas aeruginosa [28] = experiment: Antibacterial activity against multidrug-resistant/tobramycin-susceptible Pseudomonas aeruginosa isolate 108590
Pseudomonas aeruginosa [29] = experiment: Antibacterial activity against multidrug-resistant/tobramycin-susceptible Pseudomonas aeruginosa isolate 79199
Pseudomonas aeruginosa [30] = experiment: Antibacterial activity against multidrug-resistant/tobramycin-susceptible Pseudomonas aeruginosa isolate 80621
Pseudomonas aeruginosa [31] = experiment: Antibacterial activity against multidrug-resistant/tobramycin-susceptible Pseudomonas aeruginosa isolate 84745
Pseudomonas aeruginosa [32] = experiment: Antibacterial activity against multidrug-resistant/tobramycin-susceptible Pseudomonas aeruginosa isolate 85322
Pseudomonas aeruginosa [33] = experiment: Induction of cytoplasmic membrane depolarization in Pseudomonas aeruginosa PAO1 by DiSC3(5) dye based fluorescence assay

Molecule	MIC (Pseudomonas aeruginosa [1]) [µg/mL]	MIC (Pseudomonas aeruginosa [12]) [µg/mL]	MIC (Pseudomonas aeruginosa [13]) [µg/mL]	MIC (Pseudomonas aeruginosa [14]) [µg/mL]	MIC (Pseudomonas aeruginosa [15]) [µg/mL]	MIC (Pseudomonas aeruginosa [16]) [µg/mL]	MIC (Pseudomonas aeruginosa [17]) [µg/mL]	MIC (Pseudomonas aeruginosa [18]) [µg/mL]	MIC (Pseudomonas aeruginosa [20]) [µg/mL]	MIC (Pseudomonas aeruginosa [21]) [µg/mL]	MIC (Pseudomonas aeruginosa [22]) [µg/mL]	MIC (Pseudomonas aeruginosa [23]) [µg/mL]	MIC (Pseudomonas aeruginosa [25]) [µg/mL]	MIC (Pseudomonas aeruginosa [26]) [µg/mL]	MIC (Pseudomonas aeruginosa [27]) [µg/mL]	MIC (Pseudomonas aeruginosa [28]) [µg/mL]	MIC (Pseudomonas aeruginosa [29]) [µg/mL]	MIC (Pseudomonas aeruginosa [30]) [µg/mL]	MIC (Pseudomonas aeruginosa [31]) [µg/mL]	MIC (Pseudomonas aeruginosa [32]) [µg/mL]	further results
O=C(O)c1cn(C2CC2)c2cc(N3CCNCC3)c(F)cc2c1=O [CIPROFLOXACIN]	> 16	64 (≈ 193 µM)	32 (≈ 96.6 µM)	256 (≈ 773 µM)	16 to 64 (≈ 48.3 to 193 µM)	16 to 32 (≈ 48.3 to 96.6 µM)	16 to 32 (≈ 48.3 to 96.6 µM)	4 to 8 (≈ 12.1 to 24.1 µM)	> 16	4 (≈ 12.1 µM)	> 16	4 (≈ 12.1 µM)	–	–	–	–	–	–	–	–	MIC (Staphylococcus aureus [2]): ≤ 0.25 µg/mL; MIC (Staphylococcus aureus [3]): ≤ 0.25 µg/mL; MIC [4]: ≤ 0.25 µg/mL; MIC [5]: 128 µg/mL (≈ 386 µM); MIC (Enterococcus faecalis): 1 µg/mL (≈ 3.02 µM); MIC (Enterococcus faecium): 8 µg/mL (≈ 24.1 µM); MIC (Streptococcus pneumoniae): 1 µg/mL (≈ 3.02 µM); MIC (Escherichia coli [6]): ≤ 0.25 µg/mL; MIC (Escherichia coli [7]): ≤ 0.25 µg/mL; MIC (Escherichia coli [8]): 256 µg/mL (≈ 773 µM); MIC (Pseudomonas aeruginosa [9]): 1 µg/mL (≈ 3.02 µM); MIC (Pseudomonas aeruginosa [10]): 4 µg/mL (≈ 12.1 µM); MIC [11]: 32 µg/mL (≈ 96.6 µM); MIC (Acinetobacter baumannii): 2 µg/mL (≈ 6.04 µM); MIC (Klebsiella pneumoniae): ≤ 0.25 µg/mL; MIC (Pseudomonas aeruginosa [19]): < 0.2 µg/mL; MIC (Escherichia coli [24]): ≤ 0.25 µg/mL
C[C@@H](O)[C@H]1C(=O)N2C(C(=O)O)=C(S[C@@H]3CN[C@H](CNS(N)(=O)=O)C3)[C@H](C)[C@H]12 [DORIPENEM]	–	5 (≈ 11.9 µM)	0.5 (≈ 1.19 µM)	> 32	32 (≈ 76.1 µM)	8 (≈ 19 µM)	16 (≈ 38 µM)	8 (≈ 19 µM)	–	–	–	–	16 (≈ 38 µM)	–	–	–	–	–	–	–	–
C[C@H]1c2cccc(O)c2C(=O)C2=C(O)[C@]3(O)C(=O)C(C(N)=O)=C(O)[C@@H](N(C)C)[C@@H]3[C@@H](O)[C@@H]21.O [DOXYCYCLINE]	–	> 32	> 32	> 32	32	> 32	> 32	32	–	–	–	–	8	–	–	–	–	–	–	–	–
C[C@@H](O)[C@H]1C(=O)N2C(C(=O)O)=C(SCCNC=N)C[C@H]12 [IMIPENEM ANHYDROUS]	32 (≈ 107 µM)	–	–	–	–	–	–	–	16 (≈ 53.4 µM)	> 32	16 (≈ 53.4 µM)	16 (≈ 53.4 µM)	–	16 (≈ 53.4 µM)	8 (≈ 26.7 µM)	32 (≈ 107 µM)	4 (≈ 13.4 µM)	32 (≈ 107 µM)	16 (≈ 53.4 µM)	32 (≈ 107 µM)	–
C[C@@H](O)[C@H]1C(=O)N2C(C(=O)O)=C(S[C@@H]3CN[C@H](C(=O)N(C)C)C3)[C@H](C)[C@H]12 [MEROPENEM]	8 (≈ 20.9 µM)	4 (≈ 10.4 µM)	1 (≈ 2.61 µM)	> 32	16 (≈ 41.7 µM)	32 (≈ 83.4 µM)	> 32	8 (≈ 20.9 µM)	> 32	> 32	32 (≈ 83.4 µM)	16 (≈ 41.7 µM)	16 (≈ 41.7 µM)	16 (≈ 41.7 µM)	8 (≈ 20.9 µM)	8 (≈ 20.9 µM)	16 (≈ 41.7 µM)	16 (≈ 41.7 µM)	16 (≈ 41.7 µM)	16 (≈ 41.7 µM)	–
COLISTIN	1	2	1	1	1	2	1	4	1	0.5	1	1	1020	1	1	1	1	2	2	1	MIC (Pseudomonas aeruginosa [19]): 1 µg/mL; Activity (Pseudomonas aeruginosa [33]): Dose-dependent effect
GENTAMICIN	4	> 32	> 0.5	> 32	> 32	> 32	> 32	32	4	> 32	8	4	> 32	8	4	16	4	16	8	4	–
